Where two headings read alike, the source gives them in different places.
Biological target: T1, G1 APOL1 (Homo sapiens, UniProt O14791, I384M/S342G)
T1 construct: expressed in transfected cells
T1 sequence (O14791 28-398 S342G/I384M): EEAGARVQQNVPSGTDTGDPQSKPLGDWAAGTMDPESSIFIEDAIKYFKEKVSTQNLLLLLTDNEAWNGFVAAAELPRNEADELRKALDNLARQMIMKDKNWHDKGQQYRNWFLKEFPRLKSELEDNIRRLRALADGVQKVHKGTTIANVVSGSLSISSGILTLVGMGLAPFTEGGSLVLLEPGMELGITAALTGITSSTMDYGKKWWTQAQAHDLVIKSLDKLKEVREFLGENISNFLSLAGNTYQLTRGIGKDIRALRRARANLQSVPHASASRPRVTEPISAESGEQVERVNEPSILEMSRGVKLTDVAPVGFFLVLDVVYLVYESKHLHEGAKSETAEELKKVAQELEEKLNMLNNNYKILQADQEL
Test: Acute APOL1 Thallium Assay with inducible stable clones of HEK 293 cells
Type: cell-based
Details: HEK 293 T-Rex inducible stable clone expressing G1 APOL1
Excerpt: Acute APOL1 Thallium Assay with Inducible Stable Clones of HEK 293 Cells
Apolipoprotein L1 (APOL1) proteins form potassium-permeable cation pores in the plasma membrane. APOL1 risk variants (G1 and G2) induce greater potassium flux than G0 in HEK293 cells. This assay exploits the permeability of thallium (T1+) through ligand-gated potassium channels. The dye produces a bright fluorescent signal upon binding to T1+ conducted through potassium channels. The intensity of the T1+ signal is proportional to the number of potassium channels in the open state. Therefore, it provides a functional indication of the potassium channel activities. During the initial dye-loading step, the T1+ indicator dye as an acetoxymethyl (AM) ester enters the cells through passive diffusion. Cytoplasm esterases cleave the AM ester and relieve its active thallium-sensitive form. The cells are then stimulated with T1+. The increase of fluorescence in the assay represents the influx of T1+ into the cell specifically through the potassium channel (i.e. through APOL1 pores), providing a functional measurement of potassium channel/pore activity. The Thallium assay is conducted with cells expressing G1 APOL1.
APOL1 Cell Line (HEK T-Rex Stable Inducible Cell Line)
• HEK T-Rex System • Tetracycline (Tet) inducible mammalian expression system. • Stably express the Tet repressor to regulate transcription. • Expression under the full-length CMV promoter. • APOL1 stable inducible cell line Clone used: G1 DC3.25 Tissue Culture Media Cell Culture Medium • DMEM+10% FBS+P/S+5 μg/mL blasticidin+1 μg/mL puromycin. • 500 mL DMEM+55 mL FBS+5 mL P/S+280 μL blasticidin S HCl (10 mg/mL)+56 μL puromycin (10 mg/mL). Cell Assay Medium • DMEM with 2% FBS+penicillin streptomycin. Reagents:
Instruments and Equipment • Nuaire cell culture hood, Cat. No. 540-600 • 37° C./5% CO2 incubator link to robotic arm, Liconic: STX110 • Molecular Devices FLIPR^Tetra High throughput cellular screening system, Cat. No. FT0324, Molecular Devices • ThermoFisher MultiDrop 384, Cat. No. 5840300 • Biotek Microfill, Cat. No. ASF1000A-4145 • BioRad TC10 cell counter, Cat. No. 145-0010 Assay Procedures Cells Scaled Up from Frozen Vials • APOL1 G1 3.25 (HEK293 T-Rex) frozen vials: 5 million cells per vial • Step 1, Day 1: Defrost frozen vial into T-225. • Step 2, Day 5: (when 85% confluent): Split one T-225 at 3×10^6 cells per flask. • Step 3, Day 8: Splits cells to set up for the assay plates as described below. Cell Culture
T-Rex APOL1 HEK cells are split twice per week to keep the confluence state below 85% of the culture flask surface area. Cells can be kept until passage 25.
• DMEM high glucose+10% FBS, +P/S, +5 μg/mL blasticidin, +1 μg/mL puromycin. • 500 mL DMEM, +55 mL FBS, +5 mL P/S, +280 μL blasticidin 10 mg/mL, +56 μL Puromycin 10 mg/mL. Assay Media • Opti-MEM reduced serum medium from Invitrogen. Day 1 Preparation of Cell Assay Plates • Culture medium is removed from the x cm^2 T-flask by aspiration. • The cell monolayer is rinsed with PBS 1× at room temperature. PBS is removed by aspiration. • Cells are trypsinized using Trypsin. • The flasks are incubated at room temperature for 2-3 minutes. • Complete DMEM medium is then added. Cell suspension is then transferred to a 50 mL Falcon polypropylene tube. • Cells are then counted using a BioRad TC10 cell counter and the required amount of cells are centrifuged at 1200 RPM for 5 minutes. Required amount is 1.3×10^6 cells/mL APOL1 T-Rex HEK cells. • The pellet is suspended in the assay medium. • Using the MultiDrop, add 20 μL to each well (corresponds to 26000 cells total per well) of a 384-well black, transparent, flat bottom Poly-D coated plate. • Tetracycline as prepared in the following section is added to the cells before plating to induce APOL1 expression. • Plates are left at room temperature for 20 to 30 minutes before incubation at 37° C. and 5% CO2. […]

[1] = read-out: Thallium Assay (IC50)

SMILES | IC50 [1] [nM] | IC50 (Thallium Assay (IC50)) [nM]
O=C(CC1CCCOC1)N[C@H]1C[C@@H](c2c(-c3ccc(F)cc3)[nH]c3c(F)cc(F)cc32)C1 (stereo partly shown) [Compound 53] | > 1000 | –
O=C(CC(=O)N1CCOCC1)N[C@H]1C[C@@H](c2c(-c3ccc(F)cc3)[nH]c3c(F)cc(F)cc32)C1 [Compound 56] | 250 to 1000 | –
O=C(CN1CCOCC1)N[C@H]1C[C@@H](c2c(-c3ccc(F)cc3)[nH]c3c(F)cc(F)cc32)C1 [Compound 57] | > 1000 | –
CN(C)CCC(=O)N[C@H]1C[C@@H](c2c(-c3ccc(F)cc3)[nH]c3c(F)cc(F)cc32)C1 [Compound 59] | > 1000 | –
CN(C)C(=O)CCC(=O)N[C@H]1C[C@@H](c2c(-c3ccc(F)cc3)[nH]c3c(F)cc(F)cc32)C1 [Compound 60] | > 1000 | –
O=C(CCN1CCCCC1)N[C@H]1C[C@@H](c2c(-c3ccc(F)cc3)[nH]c3c(F)cc(F)cc32)C1 [Compound 61] | > 1000 | –
COCCC(=O)N[C@H]1C[C@@H](c2c(-c3ccc(F)cc3)[nH]c3c(F)cc(F)cc32)C1 [Compound 62] | > 1000 | –
CC1(C)CCC(C(=O)N[C@H]2C[C@@H](c3c(-c4ccc(F)cc4)[nH]c4c(F)cc(F)cc43)C2)N1 (stereo partly shown) [Compound 64] | > 1000 | –
O=C1CC(C(=O)N[C@H]2C[C@@H](c3c(-c4ccc(F)cc4)[nH]c4c(F)cc(F)cc43)C2)C(=O)N1 (stereo partly shown) [Compound 65] | > 1000 | –
O=C1CC(C(=O)N[C@H]2C[C@@H](c3c(-c4ccc(F)cc4)[nH]c4c(F)cc(F)cc43)C2)CC(=O)N1 [Compound 70] | > 1000 | –
O=C(N[C@H]1C[C@@H](c2c(-c3ccc(F)cc3)[nH]c3c(F)cc(F)cc32)C1)C1COC1 [Compound 71] | 250 to 1000 | –
O=C1CC(CC(=O)N[C@H]2C[C@@H](c3c(-c4ccc(F)cc4)[nH]c4c(F)cc(F)cc43)C2)CC(=O)N1 [Compound 72] | > 1000 | –
CNCCC(=O)N[C@H]1C[C@@H](c2c(-c3ccc(F)cc3)[nH]c3c(F)cc(F)cc32)C1 [Compound 75] | 250 to 1000 | –
O=C(N[C@H]1C[C@@H](c2c(-c3ccc(F)cc3)[nH]c3c(F)cc(F)cc32)C1)C1(O)CC1 [Compound 76] | 250 to 1000 | –
CC(C)(C)OC(=O)NCC(=O)N[C@H]1C[C@@H](c2c(-c3ccc(F)cc3)[nH]c3c(F)cc(F)cc32)C1 [Compound 78] | > 1000 | –
O=C(N[C@H]1C[C@H](c2c(-c3ccc(F)cc3)[nH]c3c(F)cc(F)cc32)C1)OCc1ccccc1 [Compound 88] | > 1000 | –
O=C1CCC(C(=O)N[C@H]2C[C@H](c3c(-c4ccc(F)cc4)[nH]c4c(F)cc(F)cc43)C2)CN1 (stereo partly shown) [Compound 90] | > 1000 | –
O=C(N[C@H]1C[C@H](c2c(-c3ccc(F)cc3)[nH]c3c(F)cc(F)cc32)C1)C(O)C1CC1 (stereo partly shown) [Compound 92] | 250 to 1000 | –
CC(C)C(O)C(=O)N[C@H]1C[C@H](c2c(-c3ccc(F)cc3)[nH]c3c(F)cc(F)cc32)C1 (stereo partly shown) [Compound 93] | 250 to 1000 | –
O=C(CC1CC(F)(F)C1)N[C@H]1C[C@H](c2c(-c3ccc(F)cc3)[nH]c3c(F)cc(F)cc32)C1 [Compound 98] | > 1000 | –

The remaining lines, values ahead:

IC50 [1] [nM] | IC50 (Thallium Assay (IC50)) [nM] | SMILES
> 1000 | – | CS(=O)(=O)CCC(=O)N[C@H]1C[C@@H](c2c(-c3ccc(F)cc3)[nH]c3c(F)cc(F)cc32)C1 [Compound 54]
250 to 1000 | – | NS(=O)(=O)CCCC(=O)N[C@H]1C[C@@H](c2c(-c3ccc(F)cc3)[nH]c3c(F)cc(F)cc32)C1 [Compound 58]
> 1000 | – | Cc1nccn1CC(=O)N[C@H]1C[C@@H](c2c(-c3ccc(F)cc3)[nH]c3c(F)cc(F)cc32)C1 [Compound 63]
> 1000 | – | N#CCC(=O)N[C@H]1C[C@@H](c2c(-c3ccc(F)cc3)[nH]c3c(F)cc(F)cc32)C1 [Compound 67]
250 to 1000 | – | CC(F)(F)C(=O)N[C@H]1C[C@@H](c2c(-c3ccc(F)cc3)[nH]c3c(F)cc(F)cc32)C1 [Compound 68]
> 1000 | – | O=C1NCCC1C(=O)N[C@H]1C[C@@H](c2c(-c3ccc(F)cc3)[nH]c3c(F)cc(F)cc32)C1 (stereo partly shown) [Compound 69]
250 to 1000 | – | O=C(N[C@H]1C[C@@H](c2c(-c3ccc(F)cc3)[nH]c3c(F)cc(F)cc32)C1)c1cn[nH]c1 [Compound 73]
250 to 1000 | – | CC(C)(O)C(=O)N[C@H]1C[C@@H](c2c(-c3ccc(F)cc3)[nH]c3c(F)cc(F)cc32)C1 [Compound 74]
> 1000 | – | CCCS(=O)(=O)N[C@H]1C[C@@H](c2c(-c3ccc(F)cc3)[nH]c3c(F)cc(F)cc32)C1 [Compound 79, N-((1s,3s)-3-(5,7-difluoro-2-(4-fluorophenyl)-1H-indol-3-yl)cyclobutyl)propane-1-sulfonamide]
> 1000 | – | O=S(=O)(N[C@H]1C[C@@H](c2c(-c3ccc(F)cc3)[nH]c3c(F)cc(F)cc32)C1)c1c[nH]cn1 [Compound 80]
> 1000 | – | Cn1cc(S(=O)(=O)N[C@H]2C[C@@H](c3c(-c4ccc(F)cc4)[nH]c4c(F)cc(F)cc43)C2)cn1 [Compound 81]
> 1000 | – | CCS(=O)(=O)N[C@H]1C[C@@H](c2c(-c3ccc(F)cc3)[nH]c3c(F)cc(F)cc32)C1 [Compound 82]
> 1000 | – | O=S(=O)(N[C@H]1C[C@@H](c2c(-c3ccc(F)cc3)[nH]c3c(F)cc(F)cc32)C1)C1COC1 [Compound 83]
> 1000 | – | O=S(=O)(N[C@H]1C[C@@H](c2c(-c3ccc(F)cc3)[nH]c3c(F)cc(F)cc32)C1)c1cn[nH]c1 [Compound 84]
> 1000 | – | Cn1ccnc1S(=O)(=O)N[C@H]1C[C@@H](c2c(-c3ccc(F)cc3)[nH]c3c(F)cc(F)cc32)C1 [Compound 85]
> 1000 | – | O=S(=O)(N[C@H]1C[C@@H](c2c(-c3ccc(F)cc3)[nH]c3c(F)cc(F)cc32)C1)C1CCOCC1 [Compound 86]
> 1000 | – | N#CCS(=O)(=O)N[C@H]1C[C@@H](c2c(-c3ccc(F)cc3)[nH]c3c(F)cc(F)cc32)C1 [Compound 87]
– | < 250 | N[C@H]1C[C@H](c2c(-c3ccc(F)cc3)[nH]c3c(F)cc(F)cc32)C1 [Compound 89, (1r,3r)-3-[5,7-difluoro-2-(4-fluorophenyl)-1H-indol-3-yl]cyclobutanamine]
> 1000 | – | CN(C)CC(=O)N[C@H]1C[C@H](c2c(-c3ccc(F)cc3)[nH]c3c(F)cc(F)cc32)C1 [Compound 91]
250 to 1000 | – | CC1(C(=O)N[C@H]2C[C@H](c3c(-c4ccc(F)cc4)[nH]c4c(F)cc(F)cc43)C2)CC(=O)C1 [Compound 94]
< 250 | – | O=C(CCO)N[C@H]1C[C@H](c2c(-c3ccc(F)cc3)[nH]c3c(F)cc(F)cc32)C1 [Compound 95]
250 to 1000 | – | O=C(N[C@H]1C[C@H](c2c(-c3ccc(F)cc3)[nH]c3c(F)cc(F)cc32)C1)C(O)CO (stereo partly shown) [Compound 96]
> 1000 | – | CS(=O)(=O)CCCC(=O)N[C@H]1C[C@H](c2c(-c3ccc(F)cc3)[nH]c3c(F)cc(F)cc32)C1 [Compound 99]

— US12281102B2, “Inhibitors of APOL1 and methods of using same” (Vertex Pharmaceuticals Incorporated, priority 2020, dated 2025)
